This note sets out measurements from US7718385B2, “Bioactivation of alkylating agents for cancer treatment” (priority 2003, dated 2010).

Read-outs that look alike come from different tables or passages of the source.

For one data set, the target named is recombinant rat AOR (Rattus norvegicus, UniProt P97584, Q160G/Q263G/Q264G/Q276G).
The target of the next data set is T1, recombinant AOR (Rattus norvegicus, UniProt P97584, Q160G/Q263G/Q264G/Q276G).
T1 construct: made in house
Nature of the data set: LC/MS/MS of enzymatic and nonenzymatic GSH adducts. The data set is classed as biochemical. On the procedure: High Performance Liquid Chromatography with Tandem Mass Spectrometry (LC/MS/MS) of GSA Adducts. […] These reactions were incubated at 37° C. for 1 h. Controls lacking NAFPH were performed. Reactions were stopped and deproteinized with addition of 400 μl of ice-cold acetonitrile, spun at 3500×g for 10 min at 4° C., and the supernatants were evaporated to dryness under vacuum. Residual GSH and NADPH cofactors were removed using an Oasis C18 sample prep column (Waters Chromatography). Adducts were eluted with methanol, evaporated to dryness under vacuum, resuspended in […] of 0.1% acetic acid, and detected using liquid chromatography electrospray ionization tandem mass spectrometry performed in the positive ion mode. […] A flow rate of 0.1 ml/min and gradient of 0% buffer D (70% acetic acid (0.1%):30% acetonitrile) to 100% buffer E (20% acetic acid (0.1%):80% acetonitrile) over 30 min were used to resolve the compounds. Adducts were detected by monitoring for selected molecular ions or characteristic molecular fragments after MS/MS. Molecular fragments were obtained with 35% relative collusion energy.
Measuring GSH adduction is a commonly used technique for estimating covalent protein binding, and thus cytotoxicity, of a drug (Baillie and Kassahun, 2001). The nucleophilic thiol moiety of GSH effectively scavenges electrophilic molecules and its large size and charge prevent it from entering the active site of most enzymes. […] Daughter ions of adducts, which represent the loss of water (−18 m/z) or […] (−129 m/z), were common and monitored for in these experiments following MS/MS.
Enzymatic reduction occurred in incubations containing recombinant AOR, NADPH, and GSH, while companion nonenzymatic reductions lacked NADPH. […] However the NE irofulven-GSH adduct (FIG. 5B) was detected only after monitoring for a daughter ion (M+—H2)=536 m/z) and was 42-fold less abundant than the E adduct. […] Contrary to findings with irofulven, a great deal of NE illudin M-GSH adduct was detected in NADPH-deficient incubations.

recombinant rat AOR, sequence (P97584 whole entry Q160G/Q263G/Q264G/Q276G): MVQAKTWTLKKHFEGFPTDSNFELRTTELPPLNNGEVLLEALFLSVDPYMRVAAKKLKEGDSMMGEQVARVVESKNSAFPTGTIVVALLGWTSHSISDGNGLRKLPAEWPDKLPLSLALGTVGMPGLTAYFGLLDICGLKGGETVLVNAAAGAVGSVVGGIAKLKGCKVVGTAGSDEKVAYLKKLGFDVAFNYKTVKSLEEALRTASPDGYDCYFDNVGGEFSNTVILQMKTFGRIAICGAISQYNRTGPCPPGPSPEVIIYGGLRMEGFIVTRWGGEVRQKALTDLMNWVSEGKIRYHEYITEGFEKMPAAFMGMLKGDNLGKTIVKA
T1 sequence (P97584 whole entry Q160G/Q263G/Q264G/Q276G): as above
Method for recombinant rat AOR: Varied concentrations of illudin M were added to a 200 μl 0.5× phosphate buffered saline (PBS) solution containing 115 ng of AOR and 43.4 nmoles NADPH, and incubated for 1 minute at 37° C. Reactions were then extracted with ethyl acetate containing piperine (internal standard), dried under vacuum, resuspended in HPLC buffer A (60% acetonitrile: 40% water), and injected into a Hewlett-Packard 1050 HPLC system equipped with a Luna C18 column (Phenomenex Inc.). Metabolites were separated using buffer A at a flow rate of 1 ml/min and quantified using diode array detection at 205 nm and previously reported extinction coefficients (Tanaka, et al., 1990). Vmax and Km were calculated using the HYPER program.
Rates were quantified from metabolite peak areas using reported extinction coefficients (Tanaka, et al., 1990; McMorris, et al., 1999).

Consider `CC1=C2C(=C[C@@](C)(CO)[C@@H]2O)C(=O)[C@](C)(O)C12CC2` [Illudin S], for which, at recombinant rat AOR, the Michaelis constant (Km) turned out to be 308 µM and the “maximal rate of metabolism by AOR” value was 115.9 µmol/min/mg. Also, at recombinant rat AOR (formation of Product 5), the Km was determined as 486 µM and the Vmax is listed as 65,400 nmol/min/mg. Also, on recombinant rat AOR (formation of Product 6), the Km is 308 µM and the Vmax was 50,500 nmol/min/mg.
For `CC1=C2C(=CC(C)(C)[C@@H]2O)C(=O)[C@](C)(O)C12CC2` [Illudin M], the “NE GSH adduct detected” value at recombinant AOR (NADPH-deficient incubations) was “a great deal”. Moreover, the “abundance of E (enzymatic) GSH adduct over NE (nonenzymatic) adduct” value on recombinant AOR (incubations with AOR, GSH and NADPH, 1 h, 37° C.) worked out at 14 fold. For the same molecule, the Km on recombinant rat AOR was 109 µM; on recombinant rat AOR (formation of Product 3), 109 µM; on recombinant rat AOR (formation of Product 4), 113 µM. Also, at recombinant rat AOR, the “maximal rate of metabolism by AOR” value amounted to 44.1 µmol/min/mg. Moreover, the Vmax at recombinant rat AOR (formation of Product 3) is given as 29,200 nmol/min/mg; at recombinant rat AOR (formation of Product 4), 14,900 nmol/min/mg. In the data set with 293 cells (read-out: LC50 (concentration required to produce 50 percent lethality), 293 cells, 24 h, MTT assay), the CC50 is roughly 1000 nM.
As for `O=c1oc2ccccc2c(O)c1Cc1c(O)c2ccccc2oc1=O` [dicumarol, Dicumarol], in the data set on 293 cells, the “effect on AOR-mediated activation of irofulven” value is given as “attenuated partially”. In addition, the “effect on cell growth” value with 293 cells (100 μM, alone) is recorded as “no effect on cell growth”.
